Test results: patent US20230303972A1, “IN VITRO GENETIC DISEASE MODEL CELL AND METHOD FOR PRODUCING THE SAME” (Ricoh Company, Ltd., priority 2022, published 2023)

Tests used:
[1] = tested on: hMECP2; test: Ratio of neurocytes with MECP2 knocked down versus amount of lentivirus infection (mCherry fluorescence); type: cell-based, human; settings: coculture
Description: As a lentivirus vector for transfection, an hMECP2-shRNA lentivirus vector plasmid was used. This plasmid vector contains, downstream of a U6 promoter, a base sequence of SEQ ID NO: 3 ([…]) encoding an shRNA complementary to the 3′ UTR of the hMECP2 gene. Additionally, as a control lentivirus vector, an NC-shRNA lentivirus vector plasmid was used. This plasmid vector contains, downstream of a U6 promoter, a non-mammalian shRNA having a base sequence of SEQ ID NO: 4 ([…]).
(§1) At 4 days after the cell seeding, virus solutions for expression of the respective shRNAs were added under MOI 0.1 and MOI 1, and allowed to cause infection. MOI was prepared in accordance with only the number of neurocytes. At 7 hours after the infection, the whole amount of culture medium was replaced. To the culture medium in the wells to be rescued, BDNF, which is known for the therapeutic effect for Rett syndrome, was added at 50 ng/mL.

[2] = tested on: iPS cell-derived differentiated neurocyte alone; test: Neurite morphology of iPS cell-derived neurocytes infected with hMECP2-shRNA lentivirus, single culture; type: cell-based, human; settings: FIG. 3
Procedure: (§2) Commercially available iPS-cell-derived neurocytes (#EX-SeV-CW50065, Elixirgen Scientific, Inc.) and commercially available human primary astrocytes (#N7805-100, Thermo Fisher Scientific Inc.) were thawed and used to prepare cell suspensions with culture media at 1×10^4 cells/well and 2.5×10^3 cells/well respectively. After the Laminine solution was removed, the suspension was seeded at 50 μL/well, and cocultured. For single culture, 1×10^4 cells/well neurocytes were seeded at 50 μL/well. The culture continued under 5% CO2 at 37° C. in the incubator for 6 weeks. Half the amount of the culture medium was replaced once in 3 to 4 days. The culture medium used was a culture medium specified by Elixirgen Scientific, Inc. for the period of 1 week after the seeding. Then, the culture medium used was Neurobasal Plus supplemented with 2% B-27 Plus, 1% GlutaMAX, 200 μM ascorbic acid, 10% Neurocyte culture medium, and 1% penicillin-streptomycin.
as §1, with “ng/mL. […]” for “ng/mL.”

[3] = tested on: iPS cell-derived differentiated neurocyte cocultured with human primary astrocyte; test: Neurite morphology of iPS cell-derived neurocytes with hMECP2 knockdown, coculture with human primary astrocytes (phase-contrast observation, BDNF rescue); type: cell-based; settings: observed Day 11 to Day 42
Procedure: as §2
as §1, with “ng/mL. […]” for “ng/mL.”

Molecule: hMECP2-shRNA: shRNA complementary to the 3′ UTR of the hMECP2 gene, encoded by SEQ ID NO: 3, expressed from a lentivirus vector (DNA GGGTAGGGCTCTGACAAAGCTTCCCGATTAACTGAAATAAA)
- Ratio of neurocytes with MECP2 knocked down ([1]; infection with a large amount of lentivirus, FIG. 5): in substantially all the neurocytes
- Ratio of neurocytes with MECP2 knocked down ([1]; infection with a small amount of lentivirus, FIG. 4): in a part of the neurocytes
- Knockdown effect on hMECP2 evaluated by number of neurites and length of the neurite [2]: neither a decrease in the number of neurites nor a change in the length of the neurite
- Knockdown effect on hMECP2 evaluated by number of neurites and length of the neurite ([3]; coculture of neurocyte and human primary astrocyte, FIG. 1 a to f): chronological decrease in the number of neurites and decrease in the length of the neurite

B1: BDNF: BDNF, which is known for the therapeutic effect for Rett syndrome, added to culture medium (protein, UniProt P23560 19-247, looked up)
Neurotrophic factor BDNF …: APMKEANIRGQGGLAYPGVRTHGTLESVNGPKAGSRGLTSLADTFEHVIEELLDEDQKVRPNEENNKDADLYTSRVMLSSQVPLEPPLLFLLEEYKNYLDAANMSMRVRRHSDPARRGELSVCDSISEWVTAADKKTAVDMSGGTVTVLEKVPVSKGQLKQYFYETKCNPMGYTKEGCRGIDKRHWNSQCRTTQSYVRALTMDSKKRIGWRFIRIDTSCVCTLTIKRGR
- Rescue of the hMECP2 knockdown effect (decrease in number and length of neurites) ([3]; BDNF 50 ng/mL in culture medium, hMECP2-shRNA lentivirus-infected neurocytes cocultured with astrocytes, FIG. 1 g to l): improved
